Results taken from ChEMBL document CHEMBL1201862, “PubChem BioAssay data set” (2004).
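Values below derive from 48-hour exposures of cells grown in 96-well plates, with endpoints linearly interpolated between the two concentrations bracketing the appropriate inhibition level. GI50 is the concentration that inhibits growth by half.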 Calls of active or inactive are those of the source. Cut-off read from the data, not from the text of the source: active = GI50 up to about 1.1 µM and inactive = higher.

Assays:
Assay in all cases: DTP human tumour cell line panel, 48 h
OVCAR-4 = test system: OVCAR-4
NCI-H23 = test system: NCI-H23
UO-31 = test system: UO-31
HOP-62 = test system: HOP-62
SK-OV-3 = test system: SK-OV-3
SF-295 = test system: SF-295
CAKI-1 = test system: CAKI-1
ACHN = test system: ACHN
SNB-75 = test system: SNB-75
BT-549 = test system: BT-549
M14 = test system: M14
SN12C = test system: SN12C
Malme-3M = test system: Malme-3M
HT-29 = test system: HT-29
SF-539 = test system: SF-539
IGROV-1 = test system: IGROV-1
NCI-H522 = test system: NCI-H522
RPMI-8226 = test system: RPMI-8226
K562 = test system: K562
SNB-19 = test system: SNB-19

Measured: GI50

CC(C)c1ccc(C(O)(C(=O)O)c2ccc(C(C)C)cc2)cc1
inactive: OVCAR-4 42.6 µM | NCI-H23 42.1 µM | UO-31 35.3 µM | HOP-62 28.3 µM | SK-OV-3 69.7 µM | SF-295 26.7 µM | CAKI-1 45.8 µM | ACHN 40.2 µM | SNB-75 42.7 µM | BT-549 91.6 µM | M14 63.5 µM | SN12C 46 µM | Malme-3M 78.7 µM | HT-29 48.9 µM | SF-539 > 100 µM | IGROV-1 55.7 µM | NCI-H522 34 µM | RPMI-8226 24.8 µM | K562 42.5 µM | SNB-19 45 µM

CCCCCCCCCCCCCCCCCCNc1ccn(C2OC(COP(=O)(O)OCC(COP(=O)(O)OCC3OC(n4cc(C)c(=O)[nH]c4=O)CC3N=[N+]=[N-])OCCCCCCCCCCCCCCCCCC)C(O)C2O)c(=O)n1 (stereo not given)
inactive: OVCAR-4 70.5 µM | NCI-H23 77.4 µM | UO-31 17.7 µM | HOP-62 > 100 µM | SK-OV-3 > 100 µM | SF-295 > 100 µM | CAKI-1 > 100 µM | ACHN > 100 µM | SNB-75 49 µM | BT-549 90.4 µM | M14 > 100 µM | SN12C > 100 µM | Malme-3M 27 µM | HT-29 28.5 µM | SF-539 27 µM | IGROV-1 52.2 µM | NCI-H522 12.6 µM | RPMI-8226 7.46 µM | K562 > 100 µM | SNB-19 19.4 µM

CC(=O)OC1CCC2(C)C(=CCC3C4CCC5(OC6CC(C)CN(C(C)=O)C6C5C)C(C)=C4C(=O)C32)C1 (stereo not given)
inactive: OVCAR-4 15.4 µM | NCI-H23 15 µM | UO-31 31.9 µM | HOP-62 20.4 µM | SK-OV-3 26.5 µM | SF-295 19.1 µM | CAKI-1 19.6 µM | ACHN 25.5 µM | SNB-75 19 µM | BT-549 15 µM | M14 12.7 µM | SN12C 21.6 µM | Malme-3M 15.2 µM | HT-29 19.9 µM | SF-539 20.4 µM | IGROV-1 14.4 µM | NCI-H522 14.9 µM | RPMI-8226 14.6 µM | K562 16.3 µM | SNB-19 13.7 µM

O=C1N[C@H]2C(=O)c3c(Br)sc(Br)c3[C@H]2O1
inactive: OVCAR-4 15.3 µM | NCI-H23 6.44 µM | UO-31 1.86 µM | HOP-62 16.2 µM | SK-OV-3 18.4 µM | SF-295 18.5 µM | CAKI-1 4.53 µM | ACHN 6.78 µM | SNB-75 16.5 µM | BT-549 14.5 µM | M14 3.08 µM | SN12C 4.76 µM | Malme-3M 4.75 µM | HT-29 2.47 µM | SF-539 17.4 µM | IGROV-1 11.4 µM | NCI-H522 1.55 µM | RPMI-8226 4.44 µM | K562 2.66 µM | SNB-19 15.9 µM

CCOC(=O)C(Cc1ccc(OC(=O)c2ccc(OC)cc2OC)cc1)NC(=O)C(F)(F)F (stereo not given)
inactive: OVCAR-4 23.5 µM | NCI-H23 22.1 µM | UO-31 18 µM | HOP-62 21.3 µM | SK-OV-3 39 µM | SF-295 31.7 µM | CAKI-1 29 µM | ACHN 17.2 µM | SNB-75 16.4 µM | BT-549 79.1 µM | M14 17.5 µM | SN12C 40.1 µM | Malme-3M 21.3 µM | HT-29 20.7 µM | SF-539 23.2 µM | IGROV-1 19.2 µM | NCI-H522 17.9 µM | RPMI-8226 20.3 µM | K562 29.6 µM | SNB-19 33.6 µM

CC1Cc2c(cc(N)nc2Br)NC1=O (stereo not given)
inactive: OVCAR-4 > 100 µM | NCI-H23 > 100 µM | UO-31 > 100 µM | HOP-62 > 100 µM | SK-OV-3 > 100 µM | SF-295 > 100 µM | CAKI-1 > 100 µM | ACHN 64.3 µM | SNB-75 74.8 µM | BT-549 92.9 µM | M14 > 100 µM | SN12C > 100 µM | Malme-3M > 100 µM | HT-29 > 100 µM | SF-539 > 100 µM | IGROV-1 > 100 µM | NCI-H522 > 100 µM | RPMI-8226 > 100 µM | K562 63.4 µM | SNB-19 > 100 µM

COCn1c(C)c(C)c2c(=O)oc(N(C)C)nc21
inactive: OVCAR-4 > 100 µM | NCI-H23 > 100 µM | UO-31 9.82 µM | HOP-62 > 100 µM | SK-OV-3 > 100 µM | SF-295 > 100 µM | CAKI-1 13.6 µM | ACHN > 100 µM | SNB-75 > 100 µM | BT-549 > 100 µM | M14 > 100 µM | SN12C > 100 µM | Malme-3M > 100 µM | HT-29 > 100 µM | SF-539 > 100 µM | IGROV-1 > 100 µM | NCI-H522 > 100 µM | RPMI-8226 > 100 µM | K562 > 100 µM | SNB-19 67 µM

CC1=NN(c2ccc(S(=O)(=O)O)cc2)C2(C1)SCC(=O)N2c1nc2ccccc2s1 (stereo not given)
inactive: OVCAR-4 > 100 µM | NCI-H23 > 100 µM | UO-31 > 100 µM | HOP-62 > 100 µM | SK-OV-3 > 100 µM | SF-295 > 100 µM | CAKI-1 > 100 µM | ACHN > 100 µM | SNB-75 > 100 µM | BT-549 > 100 µM | M14 > 100 µM | SN12C > 100 µM | Malme-3M > 100 µM | HT-29 > 100 µM | SF-539 > 100 µM | IGROV-1 > 100 µM | NCI-H522 > 100 µM | RPMI-8226 > 100 µM | K562 > 100 µM | SNB-19 > 100 µM

COCn1c(=O)n(C)c(=O)c2c1nc1c(c(=O)n(C)c(=O)n1COC)[n+]2[O-]
inactive: OVCAR-4 4.85 µM | NCI-H23 3.29 µM | UO-31 24.9 µM | HOP-62 9.23 µM | SK-OV-3 7.03 µM | SF-295 7.55 µM | CAKI-1 20.3 µM | ACHN 5.73 µM | SNB-75 2.75 µM | BT-549 10.3 µM | M14 10.3 µM | SN12C 7.08 µM | Malme-3M 5.47 µM | HT-29 18.8 µM | SF-539 14.6 µM | IGROV-1 7.36 µM | NCI-H522 8.97 µM | RPMI-8226 9.1 µM | K562 4.75 µM | SNB-19 13.7 µM

O=C1c2c(Br)sc(Br)c2C(=O)C1(O)O
inactive: OVCAR-4 18.3 µM | NCI-H23 33.4 µM | UO-31 34.2 µM | HOP-62 > 100 µM | SK-OV-3 > 100 µM | SF-295 > 100 µM | CAKI-1 18.6 µM | ACHN 31.8 µM | SNB-75 36.4 µM | BT-549 19.3 µM | M14 19.2 µM | SN12C 98.9 µM | Malme-3M 19.3 µM | HT-29 39.3 µM | SF-539 20.8 µM | IGROV-1 > 100 µM | NCI-H522 18.8 µM | RPMI-8226 46.6 µM | K562 27.7 µM | SNB-19 > 100 µM

CC1=NN(c2nc(N)nc(C(C)Sc3cc(Cl)c(C)cc3S(N)(=O)=O)n2)C(C)(C)C1 (stereo not given)
inactive: OVCAR-4 > 10 µM | NCI-H23 > 10 µM | UO-31 > 10 µM | HOP-62 > 10 µM | SK-OV-3 > 10 µM | SF-295 > 10 µM | CAKI-1 > 10 µM | ACHN > 10 µM | SNB-75 > 10 µM | BT-549 > 10 µM | M14 > 10 µM | SN12C > 10 µM | Malme-3M > 10 µM | HT-29 > 10 µM | SF-539 > 10 µM | IGROV-1 > 10 µM | NCI-H522 > 10 µM | RPMI-8226 > 10 µM | K562 > 10 µM | SNB-19 > 10 µM

CC1c2ccccc2Cn2cc3c(c21)C(=O)c1cccc(OP(=O)(O)OCc2ccccc2)c1C3=O (stereo not given)
inactive: OVCAR-4 > 100 µM | NCI-H23 > 100 µM | UO-31 > 78.3 µM | HOP-62 > 100 µM | SK-OV-3 > 100 µM | SF-295 > 100 µM | CAKI-1 > 82.8 µM | ACHN > 100 µM | SNB-75 > 100 µM | BT-549 > 100 µM | M14 > 100 µM | SN12C > 100 µM | Malme-3M > 100 µM | HT-29 > 100 µM | SF-539 > 100 µM | IGROV-1 > 100 µM | NCI-H522 > 100 µM | RPMI-8226 > 100 µM | K562 > 74.6 µM | SNB-19 > 100 µM

Clc1ccc(C(c2ccccc2Cl)C(Cl)Cl)cc1 (stereo not given) [MITOTANE]
inactive: OVCAR-4 16 µM | NCI-H23 19 µM | UO-31 16.9 µM | HOP-62 18.2 µM | SK-OV-3 18.1 µM | SF-295 16.2 µM | CAKI-1 13.1 µM | ACHN 14.8 µM | SNB-75 15.2 µM | BT-549 1.59 µM | M14 19.3 µM | SN12C 16.7 µM | Malme-3M 14.1 µM | HT-29 16.8 µM | SF-539 17.1 µM | IGROV-1 13.9 µM | NCI-H522 16.7 µM | RPMI-8226 14.5 µM | K562 16.3 µM | SNB-19 17.6 µM
